The subject of one data set is HBV. Particulars: to the end of the second year of a two year study; cited from earlier work.
The subject of data set [1] is Human hepatitis B DNA polymerase which expresses lamivudine codons. Particulars: Xiong et al. 1997, Abstract No. 1211; cited from earlier work.
The test system of data set [2] is WT HBV produced by the 2.2.15 cells. Particulars: Heijtink et al. 1993, read-out: IC50 of PMEA, literature value using the same cell line; cited from earlier work.
A short description of a further data set: in vitro. It counts as cell-based. The conditions noted are these: human; HepG2 cells; read-out: cytotoxic IC50. As for the experimental part: The IC50 for PMEA was determined against wild type (WT) and lamivudine resistant HBV transiently expressed in a cell culture system as described below. HepG2 cells were transiently transfected with plasmid containing the HBV genome that had the wild type sequence or contained the following lamivudine resistant mutations in the reverse transcriptase gene; M552I, M552V, L528M, L528MM552V. […] HepG2 cells were seeded into 96-well Costar plates at 6300 cells per well in 150 µl of HepG2 media (Dulbecco's Modified Eagle Medium (DMEM), containing 10% fetal bovine serum) and were incubated overnight at 37°C. For each transfected well, 75 ng of plasmid DNA and 0.5 µl of lipofectamine (Gibco) were incubated together for 30 minutes at room temperature in 12.5 µl of OptiMem (Gibco) prior to addition of DNA/lipofectamine mixture to cells. Each well was rinsed with 150 µl of unsupplemented DMEM. […] HBV DNA levels were quantitated from media harvested from cells on day 7 using the methods described in Jansen RW, Johnson LC, Averett, DR. […] Cytotoxicity due to drug treatment was determined using the DNA stain Bisbenzimide (H33342 3HCl 4H2O; Calbiochem Company, La Jolla CA). […] Fluorescent values per well were determined with a Millipore Cytofluor 2350 fluorescent plate reader (excitation, 355 nm; emission, 460 nm; arbitrary units). […]

The test system of data set [3] is WT HBV produced by the 2.2.15 cells. The data set is described as follows: PMEA inhibition of HBV DNA production in 2.2.15 stable HBV-producer cells. Type of data set: cell-based. Particulars: Hepatitis B virus, 168 h, HBV DNA in media on day 7, read-out: IC50 PMEA (95%Cl). The procedure:
(§1) The human hepatobtastoma cell line (Hep-G2-2.2.15) which constitutively produces infectious HBV was seeded into 96 well microtiter plates at a density of 5 x 10^3 cells per well. These cells were treated with a combination of lamivudine and PMEA on triplicate plates. Culture media containing drugs was replenished every other day for 9 days, at which time supernatants were collected and analyzed for HBV content. The lamivudine/PMEA combination was tested twice in triplicate in matrix fashion. […] Data were normalised to values obtained with non-drug treated cells, and expressed as a percent of control for analysis. […] Briefly, HBV detection was performed by "capturing" virus from supernatants on Anti-HBsAg coated plates, washing, denaturing to release HBV DNA, performing PCR with biotinylated primers, streptavidin capture of biotinylated PCR products with concomitant probe hybridization, addition of substrate, and reading optical densities of the colorimetric reaction. Dilutions of a standardized HBV-containing supernatant were included on every plate, and HBV DNA concentrations of test wells were calculated from this HBV standard curve. The useful range of detection is at least .045 to 45 fg of HBV DNA, where 30 copies of the genome can be reliably detected. […]

For the next data set, the system named is HBV M552I. As to the kind of experiment: PMEA inhibition of HBV DNA production, HepG2 cells transiently transfected with HBV genome plasmid. It counts as cell-based, hepatitis B virus. As for the experimental part: (§2) The human hepatobtastoma cell line (Hep-G2-2.2.15) which constitutively produces infectious HBV was seeded into 96 well microtiter plates at a density of 5 x 10^3 cells per well. These cells were treated with a combination of lamivudine and PMEA on triplicate plates. Culture media containing drugs was replenished every other day for 9 days, at which time supernatants were collected and analyzed for HBV content. The lamivudine/PMEA combination was tested twice in triplicate in matrix fashion. Experiment 1 utilised a lamivudine range of 100 nM to 0.14 nM (3-fold dilutions in columns), and PMEA, 9-[(R)-2-(phosphonomethoxy)ethyl]adenine (adefovir), at concentrations of 1 µM to 10 nM (3.16 fold dilutions in rows). Experiment 2 was performed with dilutions of Lamivudine ranging from 100nM to .045 nM (in 3-fold dilutions in columns), and a PMEA range of 5 µM to 0.16 nM (3.16 fold dilutions in rows). Both drugs were diluted in a separate 96 well microtiter plate, and subsequently transferred onto plates containing the cell monolayers. Cells are grown in 150 µl RPMI 1640 supplemented with 2 mM L-Glutamine and 10% fetal bovine serum. Prior to transfer of drug, 120 µl of media was removed from the cells, leaving 30 µl on the monolayers to prevent drying. 90 µl of fresh media without drug was added, followed by the addition of 30 µl of 5X drug dilutions. Lamivudine and PMEA were each tested on their respective plates individually at the same concentrations. Data were normalised to values obtained with non-drug treated cells, and expressed as a percent of control for analysis. The method used for detection of HBV has been previously described (Jansen RW, Johnson LC, Averett, DR. High-Capacity in vitro assessment of anti-hepatitis B virus compound selectivity by a virion-specific polymerase chain reaction assay. Antimicrob Agents Chem 1993; 37 (3): 441-447.). Briefly, HBV detection was performed by "capturing" virus from supernatants on Anti-HBsAg coated plates, washing, denaturing to release HBV DNA, performing PCR with biotinylated primers, streptavidin capture of biotinylated PCR products with concomitant probe hybridization, addition of substrate, and reading optical densities of the colorimetric reaction. Dilutions of a standardized HBV-containing supernatant were included on every plate, and HBV DNA concentrations of test wells were calculated from this HBV standard curve. The useful range of detection is at least .045 to 45 fg of HBV DNA, where 30 copies of the genome can be reliably detected. Samples were tested in conjunction with both positive (.448 fg/ul plasmid DNA) and negative (RPMI medium supplemented with 2 mM L-Glutamine and 10% Fetal calf serum) controls. The average IC50 and standard error of the IC50s for the triplicate plates were calculated using SAS nonlinear regression to fit data to the Hill equation for each concentration response curve. When only a single determination of an IC50 for a particular dose combination could be made, the average of the standard errors from adjacent concentrations was used to estimate the standard error. Fractional inhibitory concentrations (FIC50) were calculated for each combination and plotted using the isobologram representation (Berenbaum, M.C. (1985) The Expected Effect ofa Combination of Agents: the General Solution. J. Theor. Biol. 114, 413-431). To assess statistical significance of synergy or antagonism, an unpaired t-test was used to compare each sum of paired FIC50 values with the theoretical value of 1. P values less than 0.05 were considered statistically significant. Comparison of P values between experiments must be interpreted with great care, as the experiments utilized different test concentration ranges (or ranges useable by the isobologram method). In some cases not all concentrations tested could support calculation of an IC50, since response was inhibited to a greater extent than 50 percent of control for all doses. […]

The test system of another data set is HBV L528M/ M552V. The description is as above. Type of data set: cell-based, hepatitis B virus. The procedure:
as §2

For another data set, the system named is HBV M552V. The description is as above. It counts as cell-based, hepatitis B virus. As for the experimental part: as §2
The subject of the next data set is HBV L528M. Described as above. It counts as cell-based, hepatitis B virus. As for the experimental part:
as §2

For a further data set, the system named is WT HBV. The description is as above. It counts as cell-based. Particulars: Hepatitis B virus, 168 h, WT construct, day 7, read-out: IC50 PMEA (95%Cl). The procedure:
as §1

Structures are written as SMILES. Where two headings read alike, the source gives them in different places.

The values that follow come from patent publication EP1113802B1, “ANTIVIRAL COMBINATIONS OF […] ADEFOVIR” (priority 1998, dated 2000).

As to `Nc1ccn([C@@H]2CS[C@H](CO)O2)c(=O)n1` (relative stereo) [lamivudine, (2R,cis)-4-amino-1-(2-hydroxymethyl-1,3-oxathiolan-5-yl)-pyrimidin-2-one], the “patients maintaining undetectable levels of virus” value in the data set on HBV is recorded as 52%.

A word on the IC50: it is the concentration that gives 50% inhibition. As to `Nc1ncnc2c1ncn2CCOCP(=O)(O)O` [PMEA, 9-[(R)-2-(phosphonomethoxy)ethyl]adenine], the “cross-resistance to PMEA” value in data set [1] was “lack of cross-resistance”. Also, the IC50 in [2] is 700 nM; in “in vitro” it was 25000 to 40000 nM; in data set [3], 430 nM; in the data set on HBV M552I (Hepatitis B virus, 168 h, M552I construct, transfected HepG2 cells, day 7, read-out: IC50 PMEA (95%Cl)), 7500 nM; in the data set on HBV L528M/ M552V (Hepatitis B virus, 168 h, L528M/ M552V construct, transfected HepG2 cells, day 7, read-out: IC50 PMEA (95%Cl)) it was 1300 nM; in the data set on HBV M552V (Hepatitis B virus, 168 h, M552V construct, transfected HepG2 cells, day 7, read-out: IC50 PMEA (95%Cl)), 9800 nM. Moreover, the IC50 in the data set with HBV L528M (Hepatitis B virus, 168 h, L528M construct, transfected HepG2 cells, day 7, read-out: IC50 PMEA (95%Cl)) was determined as 870 nM; in the data set on WT HBV, 530 nM. Besides, the “x-fold change in IC50” value turned out to be 14 with HBV M552I (M552I versus WT HBV), 2.5 in the data set with HBV L528M/ M552V (L528M/ M552V versus WT HBV), 18 with HBV M552V (M552V versus WT HBV) and 1.6 with HBV L528M (L528M versus WT HBV).
